IC50 data for six molecules are collected here from patent publication US20120040987A1, “DERIVATIVES OF 6-(6-NH-SUBSTITUTED-TRIAZOLOPYRIDAZINE-SULFANYL) BENZOTHIAZOLES AND BENZIMIDAZOLES, PREPARATION THEREOF, USE THEREOF AS DRUGS, AND USE THEREOF AS MET INHIBITORS” (SANOFI, priority 2009, published 2012).

In experiment [1] the test system is HCT116 cells and MKN45 cells. Kind of experiment: Test C: measurement of cell proliferation by 14C-thymidine pulse. Type of experiment: cell-based. The following applies: 14C-thymidine incorporation, 96 h of treatment; cell line not given. As for the experimental part:
The cells are seeded into Cytostar 96-well plates in 180 μl for 4 hours at 37° C. and 5% CO2: HCT116 cells at a rate of 2500 cells per well in DMEM medium+10% foetal calf serum+1% L-glutamine and MKN45 cells at a rate of 7500 cells per well in RPMI medium+10% foetal calf serum+1% L-glutamine. After these 4 hours of incubation, the products are added in 10 μl as a 20-fold concentrated solution according to the dilution method mentioned for the ELISA. The products are tested at 10 concentrations in duplicate from 10 000 nM to 0.3 nM with an increment of 3.
After treatment for 72 h, add 10 μl of ^14C-thymidine at 10 μCi/ml to obtain 0.1 μCi per well. The ^14C-thymidine incorporation is measured on a Micro-Beta machine (Perkin-Elmer) after 24 hours of pulse and 96 h of treatment.
All the steps of the assay are automated on BIOMEK 2000 or TECAN stations.

In experiment [2] the target is T1, MET (Homo sapiens, UniProt P08581). Put plainly: Test A: HTRF MET assay in 96-well format. Type of experiment: biochemical. Also noted: The His-Tev-MET (956-1390) recombinant DNA in pFastBac (Invitrogen) is transfected into insect cells; His tag (N, cleaved yes); Tev cleavage site (N, cleaved yes); made in house; host or cells: SF21 insect cells (baculovirus, pFastBac). The following applies: MET 5 nM, 10 μM ATP. As to the method:
The His-Tev-MET (956-1390) recombinant DNA in pFastBac (Invitrogen) is transfected into insect cells, and after several viral amplification steps, the final baculovirus stock is tested for the expression of the protein of interest.
After infection for 72 h at 27° C. with the recombinant virus, the SF21 cell cultures are harvested by centrifugation and the cell pellets are stored at −80° C.
The cell pellets are resuspended in lysis buffer (buffer A [50 mM HEPES, pH 7.5, 250 mM NaCl, 10% glycerol, 1 mM TECP]; +cocktail of protease inhibitors, Roche Diagnostics, without EDTA, ref 1873580), stirred at 4° C. until the mixture is homogeneous and then lyzed mechanically using a “Dounce” type apparatus.
After centrifugation, the lysis supernatant is incubated for 2 h at 4° C. with nickel chelate resin (His-Trap 6 Fast Flow™, GE HealthCare). After washing with 20 volumes of buffer A, the suspension is packed into a column, and the proteins are eluted with a gradient of buffer B ([…]+290 mM imidazole).
The fractions containing the protein of interest for the purpose of electrophoretic analysis (SDS PAGE) are combined, concentrated by ultrafiltration (10 kDa cut-off) and injected onto an exclusion chromatography column (Superdex™ 200, GE HealthCare) equilibrated in buffer A.
After enzymatic cleavage of the histidine tag, the protein is reinjected onto a new IMAC nickel chelate chromatography column (His-Trap 6 Fast Flow™, GE HealthCare) equilibrated in buffer A. The fractions eluted with a gradient of buffer B and containing the protein of interest after electrophoresis (SDS PAGE) are finally combined and conserved at −80° C.
For the production of autophosphorylated protein, the previous fractions are incubated for 1 h at ambient temperature after the addition of 2 mM ATP, 2 mM MgCl2, and 4 mM Na3VO4. After the reaction has been stopped with 5 mM of EDTA, the reaction mixture is injected onto a HiPrep desalifying column (GE HealthCare) preequilibrated in buffer A+4 mM Na3VO4, and the fractions containing the protein of interest (SDS PAGE analysis) are combined and stored at −80° C. The degree of phosphorylation is verified by mass spectrometry (LC-MS) and by peptide mapping.
MET at a final concentration of 5 nM is incubated in a final volume of 50 μl of enzymatic reaction in the presence of the test molecule (for a final concentration range of from 0.17 nM to 10 μM, 3% DMSO final concentration) in 10 mM MOPS buffer, pH 7.4, 1 mM DTT, 0.01% Tween 20. The reaction is initiated with the substrate solution to obtain final concentrations of 1 μg/ml poly-(GAT), 10 μM ATP and 5 mM MgCl2. After incubation for 10 min at ambient temperature, the reaction is stopped with a 30 μl mix so as to obtain a final solution of 50 mM Hepes pH 7.5, 500 mM potassium fluoride, 0.1% BSA and 133 mM EDTA in the presence of 80 ng of streptavidin 61SAXLB Cis-Bio Int. and 18 ng of anti-phosphotyrosine Mab PT66-Europium Cryptate per well. After incubation for 2 hours at ambient temperature, the reading is taken at 2 wavelengths, 620 nm and 665 nm, on a reader for the TRACE/HTRF technique and the % inhibition is calculated from the 665/620 ratios.
Target sequence in this assay (P08581 956-1390): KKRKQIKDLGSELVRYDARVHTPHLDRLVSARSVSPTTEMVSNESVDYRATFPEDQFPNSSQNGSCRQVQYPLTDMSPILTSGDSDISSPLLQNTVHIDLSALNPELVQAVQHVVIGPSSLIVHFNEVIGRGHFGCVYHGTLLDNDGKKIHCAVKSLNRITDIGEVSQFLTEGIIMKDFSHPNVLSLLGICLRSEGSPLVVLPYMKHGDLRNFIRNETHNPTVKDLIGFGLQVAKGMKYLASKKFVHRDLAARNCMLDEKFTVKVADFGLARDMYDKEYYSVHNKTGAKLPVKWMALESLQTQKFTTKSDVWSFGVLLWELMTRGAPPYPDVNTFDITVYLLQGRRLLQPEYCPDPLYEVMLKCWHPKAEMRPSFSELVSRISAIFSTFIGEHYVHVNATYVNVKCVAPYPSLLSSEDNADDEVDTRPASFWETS

Experiment [3] concerns the target T1, MET. Kind of experiment: Test B: inhibition of the autophosphorylation of MET, ELISA technique (pppY1230, 1234, 1235) on MKN45 cell lysates. It counts as cell-based. Also noted: endogenous in cells; host or cells: MKN45 cells. The settings on record: MKN45 cells, 1 h treatment, phosphoMET ELISA. As for the experimental part:
a) Cell lysates: Seed MKN45 cells into 96-well plates (Cell coat BD polylysine) at 20 000 cells/well in 200 μl in RPMI medium+10% FCS+1% L-glutamine. Leave to adhere for 24 hours in an incubator.
The cells are treated the day after seeding with the products at 6 concentrations in duplicate for 1 h. At least 3 control wells are treated with the same final amount of DMSO.
Product dilution: Stock at 10 mM in pure DMSO—range from 10 mM to 30 μM with an increment of 3 in pure DMSO—intermediate 1/50 dilutions in culture medium and then removal of 10 μl added directly to the cells (200 μl): final range of 10 000 to 30 nM.
At the end of the incubation, carefully remove the supernatant and rinse with 200 μl of PBS. Next, place 100 μl of lysis buffer directly in the wells on ice and incubate at 4° C. for 30 minutes. Lysis buffer: 10 mM Tris HCl, pH7.4, 100 mM NaCl, 1 mM EDTA, 1 mM EGTA, 1% Triton X-100, 10% glycerol, 0.1% SDS, 0.5% deoxycholate, 20 mM NaF, 2 mM Na3VO4, 1 mM PMSF and cocktail of antiproteases.
The 100 μl of lysates are transferred into a V-bottomed polypropylene plate and the ELISA is performed immediately, or the plate is frozen at −80° C.
Into each well of the kit plate, add 70 μl of kit dilution buffer+30 μL of cell lysate or 30 μl of lysis buffer for the blanks. Incubate for 2 h with gentle agitation at ambient temperature.
Rinse the wells 4 times with 400 μl of kit washing buffer. Incubate with 100 μl of anti-phospho MET antibody for 1 hour at ambient temperature.
Rinse the wells 4 times with 400 μl of kit washing buffer. Incubate with 100 μl of anti-rabbit HRP antibody for 30 minutes at ambient temperature (except for the wells of chromogen alone).
Rinse the wells 4 times with 400 μl of kit washing buffer. Introduce 100 μL of chromogen and incubate for 30 minutes in the dark at ambient temperature.
Stop the reaction with 100 μl of stop solution. Read without delay at […], 0.1 second on Wallac Victor plate reader.
Target sequence in this assay (P08581 25-1390): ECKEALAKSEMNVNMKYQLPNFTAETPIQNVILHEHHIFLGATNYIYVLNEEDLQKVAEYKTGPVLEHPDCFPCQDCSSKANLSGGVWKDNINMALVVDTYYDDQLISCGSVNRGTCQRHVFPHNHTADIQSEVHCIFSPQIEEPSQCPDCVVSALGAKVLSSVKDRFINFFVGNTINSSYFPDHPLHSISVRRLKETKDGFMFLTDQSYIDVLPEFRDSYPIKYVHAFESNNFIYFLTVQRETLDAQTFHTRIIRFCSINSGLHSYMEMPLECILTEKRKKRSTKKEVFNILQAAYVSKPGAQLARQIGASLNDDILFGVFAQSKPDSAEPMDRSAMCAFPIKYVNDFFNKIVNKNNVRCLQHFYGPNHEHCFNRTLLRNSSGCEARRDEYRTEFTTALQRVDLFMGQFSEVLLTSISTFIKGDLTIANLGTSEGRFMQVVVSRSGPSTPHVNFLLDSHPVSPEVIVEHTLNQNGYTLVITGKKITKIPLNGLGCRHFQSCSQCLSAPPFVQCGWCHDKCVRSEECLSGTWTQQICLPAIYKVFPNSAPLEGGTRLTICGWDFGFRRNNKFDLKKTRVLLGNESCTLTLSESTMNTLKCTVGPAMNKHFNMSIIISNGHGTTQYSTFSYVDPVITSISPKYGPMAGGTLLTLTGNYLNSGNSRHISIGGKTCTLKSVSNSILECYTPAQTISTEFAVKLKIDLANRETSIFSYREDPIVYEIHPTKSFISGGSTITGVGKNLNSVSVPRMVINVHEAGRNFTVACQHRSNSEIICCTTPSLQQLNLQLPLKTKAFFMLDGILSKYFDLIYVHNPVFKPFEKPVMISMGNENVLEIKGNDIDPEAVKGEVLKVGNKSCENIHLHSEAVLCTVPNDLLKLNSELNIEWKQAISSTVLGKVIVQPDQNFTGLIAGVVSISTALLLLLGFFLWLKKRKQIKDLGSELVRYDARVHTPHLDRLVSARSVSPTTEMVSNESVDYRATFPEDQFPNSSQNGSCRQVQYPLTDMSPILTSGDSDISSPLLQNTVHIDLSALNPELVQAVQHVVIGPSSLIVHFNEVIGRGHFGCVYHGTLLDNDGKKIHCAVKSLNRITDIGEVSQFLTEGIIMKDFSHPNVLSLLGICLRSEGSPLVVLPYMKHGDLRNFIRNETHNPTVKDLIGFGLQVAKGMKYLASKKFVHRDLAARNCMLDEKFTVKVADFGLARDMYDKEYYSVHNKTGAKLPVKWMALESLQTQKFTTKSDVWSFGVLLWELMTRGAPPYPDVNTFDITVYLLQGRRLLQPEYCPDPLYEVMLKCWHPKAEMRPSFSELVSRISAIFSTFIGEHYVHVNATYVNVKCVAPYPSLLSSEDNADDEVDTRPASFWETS

Consider `Nc1nc2ccc(Sc3nnc4ccc(NC5CCOCC5)nn34)cc2s1` [Example 1, 3-[(2-Amino-1,3-benzothiazol-6-yl)sulphanyl]-N-(tetrahydro-2H-pyran-4-yl)[1,2,4]triazolo[4,3-b]pyridazin-6-amine], for which the half-inhibitory concentration (IC50) in experiment [1] is below 1000 nM; in experiment [2], below 100 nM.
Take `CC(=O)Nc1nc2ccc(Sc3nnc4ccc(NC5CCOCC5)nn34)cc2s1` [Example 2, N-(6-{[6-(Tetrahydro-2H-pyran-4-ylamino)[1,2,4]triazolo[4,3-b]pyridazin-3-yl]sulphanyl}-1,3-benzothiazol-2-yl)acetamide]: the IC50 in experiment [1] is below 1000 nM; in experiment [3], below 100 nM; in experiment [2], below 100 nM.
With `O=C(Nc1nc2ccc(Sc3nnc4ccc(NC5CCOCC5)nn34)cc2s1)C1CC1` [Example 3, N-(6-{[6-(Tetrahydro-2H-pyran-4-ylamino)[1,2,4]triazolo[4,3-b]pyridazin-3-yl]sulphanyl}-1,3-benzothiazol-2-yl)cyclopropanecarboxamide], the results for the IC50 in experiment [1], in experiment [3] and in experiment [2] were below 1000 nM, below 100 nM and below 100 nM, respectively.
As for `O=C(NCCN1CCOCC1)Nc1nc2ccc(Sc3nnc4ccc(NC5CCOCC5)nn34)cc2s1` [Example 4, 1-[2-(Morpholin-4-yl)ethyl]-3-(6-{[6-(tetrahydro-2H-pyran-4-ylamino)-[1,2,4]triazolo[4,3-b]pyridazin-3-yl]sulphanyl}-1,3-benzothiazol-2-yl)urea], the IC50 was below 1000 nM in experiment [1], below 100 nM in experiment [3] and below 100 nM in experiment [2].
In the case of `COCCC(=O)Nc1nc2ccc(Sc3nnc4ccc(NC5CCOCC5)nn34)cc2s1` [Example 5, 3-Methoxy-N-(6-{[6-(tetrahydro-2H-pyran-4-ylamino)[1,2,4]triazolo-[4,3-b]pyridazin-3-yl]sulphanyl}-1,3-benzothiazol-2-yl)propanamide], the IC50 in experiment [1] is below 1000 nM; in experiment [3] it was below 100 nM; in experiment [2], below 100 nM.
`CN(C)CC(=O)Nc1nc2ccc(Sc3nnc4ccc(NC5CCOCC5)nn34)cc2s1` [Example 6, N^2,N^2-dimethyl-N-(6-{[6-(tetrahydro-2H-pyran-4-ylamino)[1,2,4]triazolo-[4,3-b]pyridazin-3-yl]sulphanyl}-1,3-benzothiazol-2-yl)glycinamide]: the values for the IC50 in experiment [1], in experiment [3] and in experiment [2] were below 1000 nM, below 100 nM and below 100 nM, respectively.
